Data from patent US20230280334A1, “CDC20 VARIANTS RESISTANT TO ANTI-MITOTIC DRUGS AND RELATED METHODS AND COMPOSITIONS” (Whitehead Institute for Biomedical Research, priority 2021, published 2023).

Assays:
[1] = system: ΔM1 mutant cell line (HeLa lacking the canonical M1 ATG start codon of CDC20); test: Time-lapse mitotic arrest duration in ΔM1 mutant cell line; format: cell-based, human; details: for mitotic arrest / mitotic exit behaviour in the presence of STLC: ΔM1 cells, 10 µM STLC alone or with the named agent; for Mitotic time (min), ΔM1: in the presence of 10 µM STLC with the indicated drug or RNAi treatment, mean ± standard deviation, two replicates
Method: (§1) Mitotic arrest duration in the presence of 10 µM STLC for control HeLa compared to the ΔM1 and M1-stop mutant cell lines with the indicated drug or RNAi treatment (see FIGS. 3F, 9D). Indicated is the mean mitotic duration ± standard deviation across two experimental replicates. Statistics from Mann-Whitney Test (**** = p < 0.0001, NS = not significant).
(§2) HeLa, hTERT-RPE1, U2OS, and A549 cell lines were cultured in Dulbecco’s modified Eagle medium (DMEM) supplemented with 10% fetal bovine serum (FBS), 100 U/mL penicillin and streptomycin, and 2 mM L-glutamine at 37° C. with 5% CO2. Doxycycline-inducible cell lines were cultured in medium containing FBS certified tetracycline free. Cas9 expression in inducible CRISPR/Cas9 cell lines was induced with 1 µg/ml doxycycline hyclate (##) at 24 hr interval for 2 days. Other drugs used on human cells were Nocodazole (##, 330 nM), S-trityl-L-cysteine (STLC, ##, 10 µM), Taxol (##, 1 µM), GSK923295 (CENP-E inhibitor, ##, 100 nM), proTAME (APC/Ci, ##, 12 µM), AZ-3146 (Mps1i, ##, 4 µM) unless concentration indicated otherwise in figure legend. Cells were enriched in mitosis with treatment with 330 nM nocodazole for 16-17 hrs. Cell lines were tested monthly for mycoplasma contamination.
(§3) Stable clonal cell lines lacking the canonical full-length Cdc20 protein were obtained by transfecting HeLa cells with pX330-based plasmids [Cong 2013] expressing spCas9 and either the sgM1 (for ΔM1 mutant) or the sgExon1 guide RNA (for M1-stop mutant). pX330-based plasmids were transfected using Xtremegene-9 (##) together with a mCherry-expressing plasmid and mCherry-positive cells were fluorescence activated cell-sorted into 96 well plates with one cell per well. Clones were screened for successful gene editing and the CDC20 allele sequence information was determined by next-generation sequencing (Genewiz Amplicon-EZ).
(§4) Cells were later moved to CO2-independent media (##) before imaging at 37° C. Phase contrast images were acquired on a Nikon eclipse microscope equipped with a charge-coupled device (CCD) camera (Clara, Andor) or a CMOS camera (##) using a Plan Fluor 20X/0.5 NA objective at either 5 min or 10 min intervals. Time-lapse movies were analyzed using Fiji (ImageJ, NIH), ilastik (##) and CellProfiler (##). Image brightness and contrast was adjusted in Fiji, pixel-based classification was performed on individual images using ilastik and the resulting probability map images were processed by CellProfiler to identify and track mitotic cells. Each mitotic cell was then confirmed manually and the mitotic duration was determined as the time from cell rounding at mitotic entry to cell flattening after mitotic exit.

[2] = system: M1-stop mutant cell line (HeLa lacking full-length Cdc20); test: Time-lapse mitotic arrest duration in M1-stop mutant cell line; format: cell-based, human; details: for mitotic arrest / mitotic exit behaviour in the presence of STLC: M1-stop cells, 10 µM STLC alone or with the named agent; for Mitotic time (min), M1-stop: in the presence of 10 µM STLC with the indicated drug or RNAi treatment, mean ± standard deviation, two replicates
Method: as §1, §2, §3, §4

HeLa cells = test: Time-lapse mitotic timing / mitotic arrest duration in HeLa cells; format: cell-based, human; details: for median arrest time / median mitotic arrest duration: HeLa; for median arrest time: 10 µM STLC (FIG. 6D); for median mitotic arrest duration: 10 µM STLC (FIG. 5E); for Mitotic time (min), HeLa: in the presence of 10 µM STLC with the indicated drug or RNAi treatment, mean ± standard deviation, two replicates
Method: as §1, §2, §4

HEC-6 cells = test: Mitotic arrest duration in HEC-6 cells; format: cell-based; details: 10 µM STLC (FIG. 14C)
Text: (FIG. 14B) HEC-6 cells express reduced levels of full-length Cdc20 protein and thus higher relative levels of the alternative Cdc20 isoforms, compared to control HeLa cells.

A549 cells = test: Time-lapse mitotic arrest duration in A549 cells; format: cell-based, human; details: for median arrest time: 10 µM STLC (FIG. 6D)
Method: (§5) FIGS. 6A-6D show downstream in-frame Cdc20 translation initiation influences the mitotic slippage behavior of cancer cell lines. (FIG. 6A) Mitotic arrest duration of individual HeLa, U2OS, or A549 cells treated with 10 µM STLC alone or with a combination of STLC and siRNA treatment (either control siRNAs or Cdc20 siRNAs). Cells entering mitosis in the first 600 min (HeLa) or 700 min (U2OS/A549) of time lapse experiments were included in analyses. Open red circles indicate cells that exit mitosis. Closed black circles indicate cells that remained arrested in mitosis till the end of the time lapse. Blue circles indicate cells that die in mitosis. Bars correspond to median. Indicated are the median mitotic duration times across two experimental replicates. (FIG. 6B) Western blot of mitotically-enriched U2OS cells expressing endogenous Cdc20 protein or upon Cdc20 replacement with either wild-type CDC20 cDNA or a CDC20 M43L M88L mutant construct. Cells were enriched in mitosis with 10 µM STLC for 18 hrs. Cdc20 protein was detected using antibodies recognizing the human Cdc20 C-terminus (aa 450-499). β-actin was used as loading control. (FIG. 6C) Western blot similar to (B) for A549 cells except that ectopic constructs were induced with 50 ng/ml doxycycline. (FIG. 6D) Top, schematic illustrating the Cdc20 replacement strategy with siRNA-resistant 5′ UTR-CDC20 cDNA constructs from a doxycycline-inducible promoter combined with depletion of endogenous Cdc20 protein by siRNA treatment. Cells were treated with 10 ng/ml (HeLa/U2OS) or 50 ng/ml (A549) doxycycline. […]
(§6) Cells were later moved to CO2-independent media (##) before imaging at 37° C. […] Time-lapse movies were analyzed using Fiji (ImageJ, NIH), ilastik (##) and CellProfiler (##). […] Each mitotic cell was then confirmed manually and the mitotic duration was determined as the time from cell rounding at mitotic entry to cell flattening after mitotic exit.

U2OS cells = test: Time-lapse mitotic arrest duration in U2OS cells; format: cell-based, human; details: for median arrest time: U2OS, 10 µM STLC (FIG. 6D)
Method: as §5, §6

[3] = Cdc20 replacement with Cdc20 M43L M88L
[4] = Cdc20 replacement with wild-type CDC20 construct

COC(=O)[C@H](CCCN=C(NC(=O)OCOC(=O)Cc1ccccc1)NC(=O)OCOC(=O)Cc1ccccc1)NS(=O)(=O)c1ccc(C)cc1 [proTAME]
mitotic arrest / mitotic exit behaviour in the presence of STLC [1]: suppressed the premature mitotic exit | mitotic arrest / mitotic exit behaviour in the presence of STLC [2]: suppressed the premature mitotic exit

AZ3146
mitotic arrest / mitotic exit behaviour in the presence of STLC [1]: not exacerbated further | mitotic arrest / mitotic exit behaviour in the presence of STLC [2]: further reduce the arrest

N[C@@H](CSC(c1ccccc1)(c1ccccc1)c1ccccc1)C(=O)O [STLC, S-trityl-L-cysteine]
Mitotic time (min), ΔM1 ([1]; listed as STLC/DMSO): 60±24 (n=97) min | Mitotic time (min), ΔM1 ([1]; listed as STLC/siCtrl): 65±37 (n=88) min | mitotic arrest / mitotic exit behaviour in the presence of STLC [1]: exit mitosis within a few hours | median arrest time (HeLa cells; [3]): 2110 min | median arrest time (HeLa cells; [4]): 1755 min | median mitotic arrest duration (HeLa cells; endogenous Cdc20 replaced with altATGmutx2 mutant construct): 1370 min | median mitotic arrest duration (HeLa cells; endogenous Cdc20 replaced with wild-type siRNA-resistant CDC20 construct): 1810 min | median mitotic arrest time (HeLa cells; STLC-treated HeLa, 10 µM STLC alone (FIG. 6A)): 1645 min | time arrested in mitosis after mitotic entry (HeLa cells; control HeLa, 10 µM STLC, time-lapse (FIG. 3A)): > 10 h | Mitotic time (min), HeLa (HeLa cells; listed as STLC/DMSO): 780±203 (n=103) min | Mitotic time (min), HeLa (HeLa cells; listed as STLC/siCtrl): 805±168 (n=122) min | mitotic arrest duration compared to control HeLa cells (HEC-6 cells): reduced mitotic arrest duration compared to control HeLa cells | median arrest time (A549 cells; A549, Cdc20 replacement with Cdc20 M43L M88L): 1140 min | median arrest time (A549 cells; A549, Cdc20 replacement with wild-type CDC20 construct): 920 min | median mitotic arrest time (A549 cells; STLC-treated A549, 10 µM STLC alone (FIG. 6A)): 780 min | median mitotic arrest time (U2OS cells; STLC-treated U2OS, 10 µM STLC alone (FIG. 6A)): 805 min | median arrest time (U2OS cells; [3]): 1100 min | median arrest time (U2OS cells; [4]): 690 min | mitotic arrest / mitotic exit behaviour in the presence of STLC [2]: exit mitosis within a few hours | Mitotic time (min), M1-stop ([2]; listed as STLC/DMSO): 67±12 (n=85) min | Mitotic time (min), M1-stop ([2]; listed as STLC/siCtrl): 70±18 (n=90) min
